From patent publication US20260035384A1, “COMPOUND CONTAINING CYCLOHEXYL” (CHIA TAI TIANQING PHARMACEUTICAL GROUP CO., LTD., priority 2022, published 2026)
Where two headings read alike, the source gives them in different places.

Columns and labels:
LNCaP cells = assay: Assay on inhibitory activity for LNCaP cell proliferation (CCK-8); assay type: cell-based; conditions: 168 h incubation
Method: (§1) LNCaP cells in a good growth state were taken, washed with PBS, digested with pancreatin, and added with 2% CSS—FBS phenol red-free 1640 complete medium to terminate the digestion. The cells were collected by using a centrifuge tube, adjusted to a cell density of 1×10^5 cells/mL, and seeded in a 96-well plate (100 μL/well). Meanwhile, compounds were added using a nanoliter pipettor such that the final concentrations of the compounds were 10000 nM-0.61 nM. Two duplicate wells were set for each concentration, and meanwhile, a control was set. After another 168 h of incubation in the cell incubator, the detection reagent CCK-8 (manufacturer: Dojindo, 10 μL/well) was added.

VCaP cells = assay: Assay on inhibitory activity for VCaP cell proliferation (CCK-8); assay type: cell-based; conditions: 168 h incubation
Method: as §1, with “2.1 Assay on inhibitory activity for VCaP cell proliferation VCaP” for “LNCaP”, “5%” for “2%”, “DMEM” for “1640”

AR in LNCaP cells = target: T1, AR in LNCaP cells (Homo sapiens, UniProt P10275, T878A); assay: Assay on degradation activity for AR in LNCaP cells (HTRF human androgen receptor detection kit); assay type: cell-based; conditions: 24 h incubation; for DC50: HTRF; for Dmax: maximum degradation rate
T1 construct: Assay on Degradation Activity for AR in LNCaP Cells; endogenous in cells; host or cells: LNCaP cells
T1 sequence (P10275 1-920 T878A): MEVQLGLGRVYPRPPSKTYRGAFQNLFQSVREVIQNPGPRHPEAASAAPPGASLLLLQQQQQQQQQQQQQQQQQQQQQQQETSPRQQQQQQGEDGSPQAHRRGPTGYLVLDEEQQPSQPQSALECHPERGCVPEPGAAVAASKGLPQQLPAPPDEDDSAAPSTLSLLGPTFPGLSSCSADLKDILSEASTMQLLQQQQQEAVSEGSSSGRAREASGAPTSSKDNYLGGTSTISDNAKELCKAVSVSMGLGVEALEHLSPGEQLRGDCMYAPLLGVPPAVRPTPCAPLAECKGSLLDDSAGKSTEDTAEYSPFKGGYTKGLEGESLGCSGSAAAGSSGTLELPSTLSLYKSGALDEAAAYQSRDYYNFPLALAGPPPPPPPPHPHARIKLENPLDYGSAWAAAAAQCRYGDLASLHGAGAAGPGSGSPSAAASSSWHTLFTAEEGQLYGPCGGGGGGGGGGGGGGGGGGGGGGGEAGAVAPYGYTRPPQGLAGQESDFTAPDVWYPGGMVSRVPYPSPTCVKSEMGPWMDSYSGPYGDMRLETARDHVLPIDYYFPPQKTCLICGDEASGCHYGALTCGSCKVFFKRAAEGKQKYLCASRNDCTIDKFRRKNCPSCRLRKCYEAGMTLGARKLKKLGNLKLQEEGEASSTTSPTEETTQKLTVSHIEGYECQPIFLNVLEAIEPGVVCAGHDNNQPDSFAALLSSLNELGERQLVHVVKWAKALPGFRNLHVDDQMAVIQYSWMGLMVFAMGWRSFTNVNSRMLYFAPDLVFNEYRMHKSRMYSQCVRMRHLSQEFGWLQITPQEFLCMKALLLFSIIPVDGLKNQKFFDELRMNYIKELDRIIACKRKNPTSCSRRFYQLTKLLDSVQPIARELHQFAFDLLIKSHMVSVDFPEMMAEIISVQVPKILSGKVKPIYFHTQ
Method: The detection was carried out using the HTRF HUMAN ANDROGEN RECEPTOR DETECTION KIT (cisbio, 64ANDRPEG), 4× Supplemented Lysis buffer was prepared using the Blocking reagent stock solution (100×) and Lysis buffer stock solution (4×), and 1× Supplemented Lysis buffer was prepared using the 4× Supplemented Lysis buffer and ddH2O. Premixed antibody solutions were prepared using Detection buffer, Androgen Receptor Eu Cryptate antibody, and Androgen Receptor d2 antibody.
LNCaP cells in a good growth state were taken, washed with PBS, digested with pancreatin, and added with 2% CSS—FBS phenol red-free 1640 complete medium to terminate the digestion. The cells were collected by using a centrifuge tube, adjusted to a cell density of 1×10^6 cells/mL, and seeded in a 96-well plate (100 μL/well). The cells were incubated overnight in a cell incubator. Compounds were added using a nanoliter pipettor such that the final concentrations of the compounds were 500 nM-0.488 nM. Two duplicate wells were set for each concentration, and meanwhile, a control was set. After another 24 h of incubation in the cell incubator, the medium was pipetted out, the 1× Supplemented Lysis buffer was added at 40 μL/well to lyse the cells. After the cells were oscillated for 40 min at room temperature, 16 μL of the cell lysate was added to a 384-well plate, the Premixed antibody solutions were added at 4 μL/well, and the mixture was left to stand at 25° C. for 2 h. Fluorescence values were detected at 665 nm/620 nm using an Envision microplate reader, the four-parameter analysis was performed, the dose-response curves were fit, and DC50 (the concentration of the drug when the degradation rate reaches 50%) and Dmax (the maximum degradation rate) were calculated.

Mouse pharmacokinetics = assay type: in vivo, ICR mice; conditions: ICR, mouse, plasma; for AUC: read-out: AUC
Method: ICR mice weighing 18-22 g were randomized into groups of 9 after 3-5 days of acclimatization, and then intragastrically given the test compound solution at a dose of 10 mg/kg and intravenously injected with the test compound solution at a dose of 1 mg/kg.
Blood sampling time points for the intragastrical administration group were 15 min, 0.5 h, 1 h, 2 h, 3 h, 4 h, 6 h, 8 h, 10 h, and 24 h, and blood sampling time points for the intravenous injection administration group were […], 15 min, 0.5 h, 1 h, 2 h, 4 h, 6 h, 8 h, 10 h, and 24 h; blood was collected from the orbit to prepare plasma samples to be tested. 30 μL of each of the plasma samples to be tested and a standard curve sample were taken, and an acetonitrile solution containing an internal standard was added. Supernatants were obtained by protein precipitation, diluted, and then assayed by LC/MS/MS. Pharmacokinetic parameters were fitted using a non-compartmental model (see Table 6).

[1] = po, 10 mg/kg, Mouse i.g. 10 mpk

IC50 (LNCaP cells; Homo sapiens) [nM] | IC50 (VCaP cells; Homo sapiens, VCaP, 168 h) [nM] | SMILES | further results
< 1000 | < 100 | N#Cc1ccc(O[C@H]2CC[C@H](NC(=O)c3cnc(N4CCC(CN5CCc6ccc7c(C8CCC(=O)NC8=O)noc7c6CC5)CC4)nc3)CC2)cc1Cl (stereo partly shown) [Compound 122] | DC50 (AR in LNCaP cells): ≤ 20 nM; Dmax (AR in LNCaP cells): > 80%
< 1000 | < 10 | N#Cc1ccc(O[C@H]2CC[C@H](NC(=O)c3ccc(C4CCN(C5CC(n6ncc7c8c(C9CCC(=O)NC9=O)noc8ccc76)C5)CC4)nn3)CC2)cc1Cl (stereo partly shown) [Compound 46] | –
< 1000 | < 100 | N#Cc1ccc(O[C@H]2CC[C@H](NC(=O)c3cnc(N4CCC5(CC4)CC(CN4CCc6c(ccc7c(C8CCC(=O)NC8=O)noc67)C4)C5)nc3)CC2)cc1Cl (stereo partly shown) [Compound 130] | –
< 1000 | < 100 | N#Cc1ccc(O[C@H]2CC[C@H](NC(=O)c3ccc(N4CCC(N5CC(CN6CCc7ccc8c(C9CCC(=O)NC9=O)coc8c7CC6)C5)CC4)nn3)CC2)cc1Cl (stereo partly shown) [Compound 99] | –
< 1000 | < 1000 | N#Cc1ccc(O[C@H]2CC[C@H](NC(=O)c3cnc(N4CCN(CC5Cc6ccc7c(C8CCC(=O)NC8=O)coc7c6C5)CC4)nc3)CC2)cc1Cl (stereo partly shown) [Compound 136] | –
– | – | N#Cc1ccc(O[C@H]2CC[C@H](NC(=O)c3cnc(C4CCN(C5CN(CC6Cc7ccc8c(C9CCC(=O)NC9=O)coc8c7C6)C5)CC4)nc3)CC2)cc1Cl (stereo partly shown) [Compound 112] | IC50 (LNCaP cells): < 1000 nM; IC50 (VCaP cells): < 1000 nM
< 1000 | – | N#Cc1ccc(O[C@H]2CC[C@H](NC(=O)c3cnc(C4CCN(C5CN(CC6Cc7ccc8c(C9CCC(=O)NC9=O)coc8c7C6)C5)CC4)nc3)CC2)cc1Cl (stereo partly shown) [Compound 111] | IC50 (VCaP cells): < 100 nM
< 1000 | < 1000 | N#Cc1ccc(O[C@H]2CC[C@H](NC(=O)c3cnc(N4CC(CN5CCc6c(ccc7c(C8CCC(=O)NC8=O)noc67)C5)C4)nc3)CC2)cc1Cl (stereo partly shown) [Compound 142] | –
< 1000 | < 10 | N#Cc1ccc(O[C@H]2CC[C@H](NC(=O)c3cnc(N4CCC(CN5CCc6c(ccc7c(C8CCC(=O)NC8=O)noc67)C5)CC4)nc3)CC2)cc1Cl (stereo partly shown) [Compound 121] | –
< 1000 | < 10 | N#Cc1ccc(O[C@H]2CC[C@H](NC(=O)c3ccc(N4CCC(CN5CCC(n6ccc7c8c(C9CCC(=O)NC9=O)noc8ccc76)CC5)CC4)nn3)CC2)cc1Cl (stereo partly shown) [Compound 41] | –
< 1000 | – | N#Cc1ccc(O[C@H]2CC[C@H](NC(=O)c3ccc(N4CCC(CN5CCc6ccc7c(C8CCC(=O)NC8=O)noc7c6CC5)CC4)nn3)CC2)cc1Cl (stereo partly shown) [Compound 20] | DC50 (AR in LNCaP cells): ≤ 20 nM; Dmax (AR in LNCaP cells): > 80%
– | – | N#Cc1ccc(O[C@H]2CC[C@H](NC(=O)c3cnc(N4CCN(CC5Cc6ccc7c(C8CCC(=O)NC8=O)coc7c6C5)CC4)nc3)CC2)cc1Cl (stereo partly shown) [Compound 137] | IC50 (LNCaP cells): < 1000 nM; IC50 (VCaP cells): < 1000 nM
< 1000 | < 1000 | N#Cc1ccc(O[C@H]2CC[C@H](NC(=O)c3cnc(N4CCC(CN5CCc6ccc7c(N8CCC(=O)NC8=O)coc7c6C5)CC4)nc3)CC2)cc1Cl [Compound 139] | –
< 1000 | – | N#Cc1ccc(O[C@H]2CC[C@H](NC(=O)c3ccc(N4CCC(CN5CCc6c(ccc7c(C8CCC(=O)NC8=O)noc67)C5)CC4)nn3)CC2)cc1Cl (stereo partly shown) [Compound 19] | clearance (Mouse pharmacokinetics; iv, 1 mg/kg, Mouse i.v. 1 mpk): 5.7 mL/min/kg; half-life (Mouse pharmacokinetics; iv, 1 mg/kg, Mouse i.v. 1 mpk): 7.4 h; AUC (Mouse pharmacokinetics; iv, 1 mg/kg, Mouse i.v. 1 mpk): 2600 ng·h/mL; half-life (Mouse pharmacokinetics; [1]): 49.9 h; bioavailability (Mouse pharmacokinetics; po, 10 mg/kg, Mouse i.g. 10 mpk vs i.v. 1 mpk): 41.6%; AUC (Mouse pharmacokinetics; [1]): 10800 ng·h/mL; Cmax (Mouse pharmacokinetics; po, 10 mg/kg, Mouse i.g. 10 mpk, read-out: Cmax): 562 ng/mL; DC50 (AR in LNCaP cells): ≤ 20 nM; Dmax (AR in LNCaP cells): > 80%
< 1000 | < 100 | N#Cc1ccc(O[C@H]2CC[C@H](NC(=O)c3cnc(N4CCC5(CC4)CC(CN4Cc6ccc7c(C8CCC(=O)NC8=O)noc7c6C4)C5)nc3)CC2)cc1Cl (stereo partly shown) [Compound 128] | –
< 1000 | < 100 | N#Cc1ccc(O[C@H]2CC[C@H](NC(=O)c3cnc(N4CCC5(CC4)CC(CN4CCc6ccc7c(C8CCC(=O)NC8=O)noc7c6CC4)C5)nc3)CC2)cc1Cl (stereo partly shown) [Compound 131] | –
< 1000 | < 1000 | N#Cc1ccc(O[C@H]2CC[C@H](NC(=O)c3cnc(N4CCC(CN5CCc6ccc7c(C8CCC(=O)NC8=O)coc7c6C5)CC4)nc3)CC2)cc1Cl (stereo partly shown) [Compound 133] | –

SMILES | IC50 (LNCaP cells; Homo sapiens) [nM] | IC50 (VCaP cells; Homo sapiens, VCaP, 168 h) [nM] | further results
N#Cc1ccc(O[C@H]2CC[C@H](NC(=O)c3ccc(N4CCC5(CC4)CC(CN4CCc6ccc7c(C8CCC(=O)NC8=O)noc7c6C4)C5)nn3)CC2)cc1Cl (stereo partly shown) [Compound 35] | < 1000 | – | IC50 (VCaP cells; Homo sapiens): < 100 nM; DC50 (AR in LNCaP cells): ≤ 20 nM; Dmax (AR in LNCaP cells): > 80%
